Settings: 293.15 K, Liquid, Vibrating tube method

CCCCCCCCCC [decane]
Settings | mass density [kg/m3]
17005 kPa | 742.2
17022 kPa | 742.3
17041 kPa | 742.3
17058 kPa | 742.3
17074 kPa | 742.3
17089 kPa | 742.1
17103 kPa | 742.4
17122 kPa | 742.2
17142 kPa | 742.2
17156 kPa | 742.3
17176 kPa | 742.3
17193 kPa | 742.3
17207 kPa | 742.3
17227 kPa | 742.3
17240 kPa | 742.3
17257 kPa | 742.4
17274 kPa | 742.5
17296 kPa | 742.3
17313 kPa | 742.4
17338 kPa | 742.4
17352 kPa | 742.4
17370 kPa | 742.4
17390 kPa | 742.4
17410 kPa | 742.4
17425 kPa | 742.4
17440 kPa | 742.5
17453 kPa | 742.5
17471 kPa | 742.5
17486 kPa | 742.5
17508 kPa | 742.5
17521 kPa | 742.6
17538 kPa | 742.6
17558 kPa | 742.6
17571 kPa | 742.6
17589 kPa | 742.5
17610 kPa | 742.6
17627 kPa | 742.7
17648 kPa | 742.6
17663 kPa | 742.6
17679 kPa | 742.6
17699 kPa | 742.6
17715 kPa | 742.7
17736 kPa | 742.7
17752 kPa | 742.7
17772 kPa | 742.8
17787 kPa | 742.6
17806 kPa | 742.7
17828 kPa | 742.8
17849 kPa | 742.7
17868 kPa | 742.8
17883 kPa | 742.8
17899 kPa | 742.8
17913 kPa | 742.8
17931 kPa | 742.9
17955 kPa | 743
17969 kPa | 742.9
17985 kPa | 743
18004 kPa | 742.9
18017 kPa | 742.9
18036 kPa | 742.9
18058 kPa | 743
18072 kPa | 743
18088 kPa | 743
18102 kPa | 742.9
18118 kPa | 742.9
18140 kPa | 743
18162 kPa | 742.9
18178 kPa | 743.2
18195 kPa | 743
18214 kPa | 743
18233 kPa | 743
18256 kPa | 742.9
18273 kPa | 743.2
18295 kPa | 743
18317 kPa | 743
18342 kPa | 743.1
18359 kPa | 743.1
18381 kPa | 743.1
18400 kPa | 743.1
18418 kPa | 743.2
18434 kPa | 743.1
18457 kPa | 743.3
18474 kPa | 743.3
18500 kPa | 743.2
18520 kPa | 743.3
18538 kPa | 743.2
18560 kPa | 743.3
18581 kPa | 743.3
18599 kPa | 743.3
18622 kPa | 743.3
18645 kPa | 743.4
18663 kPa | 743.4
18686 kPa | 743.3
18701 kPa | 743.3
18728 kPa | 743.3
18745 kPa | 743.3
18766 kPa | 743.4
18793 kPa | 743.4
18811 kPa | 743.5
18832 kPa | 743.4
18849 kPa | 743.4
18871 kPa | 743.5
18888 kPa | 743.5
18912 kPa | 743.5
18936 kPa | 743.6
18955 kPa | 743.5
18976 kPa | 743.6
19001 kPa | 743.6
19019 kPa | 743.6
19043 kPa | 743.6
19062 kPa | 743.5
19077 kPa | 743.5
19096 kPa | 743.7
19115 kPa | 743.7
19134 kPa | 743.7
19153 kPa | 743.7
19172 kPa | 743.6
19191 kPa | 743.6
19259 kPa | 743.8
19307 kPa | 743.7
19325 kPa | 743.7
19340 kPa | 743.7
19353 kPa | 743.9
19374 kPa | 743.8
19395 kPa | 743.9
19408 kPa | 743.8
19424 kPa | 743.9
19451 kPa | 743.9
19464 kPa | 743.9
19480 kPa | 743.8
19495 kPa | 743.8
19511 kPa | 743.8
19524 kPa | 743.8
19536 kPa | 743.9
19556 kPa | 743.9
19575 kPa | 744
19589 kPa | 743.9
19602 kPa | 743.9
19616 kPa | 743.9
19630 kPa | 743.8
19643 kPa | 744
19662 kPa | 744
19678 kPa | 743.9
19692 kPa | 744
19712 kPa | 744
19726 kPa | 744
19742 kPa | 744
19763 kPa | 744
19775 kPa | 744
19793 kPa | 744.1
19810 kPa | 744.1
19824 kPa | 744.2
19838 kPa | 744.1
19852 kPa | 744.1
19866 kPa | 744.1
19883 kPa | 744.1
19897 kPa | 744.1
19914 kPa | 744.2
19935 kPa | 744.2
19950 kPa | 744.2
19969 kPa | 744.4
19983 kPa | 744.2
19999 kPa | 744.2
20016 kPa | 744.2
20035 kPa | 744.3
20055 kPa | 744.2
20072 kPa | 744.3
20084 kPa | 744.3
20103 kPa | 744.2
20120 kPa | 744.2
20137 kPa | 744.3
20152 kPa | 744.2
20165 kPa | 744.3
20181 kPa | 744.2
20196 kPa | 744.4
20218 kPa | 744.4
20233 kPa | 744.4
20251 kPa | 744.3
20263 kPa | 744.5
20288 kPa | 744.3
20306 kPa | 744.4
20326 kPa | 744.3
20343 kPa | 744.4
20365 kPa | 744.5
20383 kPa | 744.5
20398 kPa | 744.5
20413 kPa | 744.5
20428 kPa | 744.5
20450 kPa | 744.6
20470 kPa | 744.5
20485 kPa | 744.5
20503 kPa | 744.6
20519 kPa | 744.5
20535 kPa | 744.6
20555 kPa | 744.6
20576 kPa | 744.6
20591 kPa | 744.6
20611 kPa | 744.6
20636 kPa | 744.6
20654 kPa | 744.6
20670 kPa | 744.7
20688 kPa | 744.8
20711 kPa | 744.7
20727 kPa | 744.6
20743 kPa | 744.7
20764 kPa | 744.6
20785 kPa | 744.7
20803 kPa | 744.7
20822 kPa | 744.7
20837 kPa | 744.9
20856 kPa | 744.7
20872 kPa | 744.8
20893 kPa | 744.8
20909 kPa | 744.8
20930 kPa | 744.9
20946 kPa | 744.9
20964 kPa | 744.9
20980 kPa | 744.9
20999 kPa | 745
21015 kPa | 744.9
21039 kPa | 744.9
21058 kPa | 744.9
21074 kPa | 744.8
21093 kPa | 744.9
21109 kPa | 745
21128 kPa | 744.9
21144 kPa | 745
21163 kPa | 745
21179 kPa | 744.9
21196 kPa | 745.1
21212 kPa | 745
21228 kPa | 744.9
21247 kPa | 744.9
21266 kPa | 745.1
21283 kPa | 745.1
21304 kPa | 745
21320 kPa | 745.2
21339 kPa | 745.1
21361 kPa | 745.1
21381 kPa | 745.2
21397 kPa | 745.2
21417 kPa | 745.2
21436 kPa | 745.1
21453 kPa | 745.1
21470 kPa | 745.2
21492 kPa | 745
21514 kPa | 745.1
21534 kPa | 745.2
21559 kPa | 745.2
21576 kPa | 745.2
21596 kPa | 745.3
21619 kPa | 745.3
21641 kPa | 745.2
21661 kPa | 745.2
21681 kPa | 745.2
21704 kPa | 745.4
21724 kPa | 745.3
21747 kPa | 745.4
21764 kPa | 745.4
21789 kPa | 745.5
21810 kPa | 745.3
21827 kPa | 745.3
21847 kPa | 745.5
21865 kPa | 745.5
21885 kPa | 745.4
21900 kPa | 745.3
21924 kPa | 745.5
21947 kPa | 745.5
21965 kPa | 745.4
21983 kPa | 745.4
22000 kPa | 745.4
22018 kPa | 745.5
22037 kPa | 745.5
22053 kPa | 745.5

— the NIST ThermoML archive (doi:10.1021/je800110r)
